Data on 1 molecule can be found in US20260022094A1, “Compounds for the Treatment of Neurodegenerative Diseases” (Celgene Corporation, priority 2022, published 2026).

The experiment has as its target T1, S1P5 receptors (Homo sapiens, UniProt Q9H228).
T1 construct: expressed in transfected cells; host or cells: CHO cells (membranes)
Briefly: [35S]-GTPγS binding assay on CHO-S1P5 membranes (S1P5 agonism). It is filed as biochemical. Conditions: membranes of CHO cells expressing recombinant S1P5; measure of S1P5 agonism. The procedure, abridged:
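Membranes from CHO cells expressing recombinant S1P5 in HEPES/MgCl2/NaCl/EDTA buffer, pH 7.4, with 0.1% fatty acid-free BSA, 30 μg/mL saponin, GDP and WGA SPA beads. Compound was preincubated with membranes for 30 min at RT, then [35S]-GTPγS was added for 40 min at RT. Bound label was counted by SPA, with S1P as control.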

T1 sequence (Q9H228 whole entry): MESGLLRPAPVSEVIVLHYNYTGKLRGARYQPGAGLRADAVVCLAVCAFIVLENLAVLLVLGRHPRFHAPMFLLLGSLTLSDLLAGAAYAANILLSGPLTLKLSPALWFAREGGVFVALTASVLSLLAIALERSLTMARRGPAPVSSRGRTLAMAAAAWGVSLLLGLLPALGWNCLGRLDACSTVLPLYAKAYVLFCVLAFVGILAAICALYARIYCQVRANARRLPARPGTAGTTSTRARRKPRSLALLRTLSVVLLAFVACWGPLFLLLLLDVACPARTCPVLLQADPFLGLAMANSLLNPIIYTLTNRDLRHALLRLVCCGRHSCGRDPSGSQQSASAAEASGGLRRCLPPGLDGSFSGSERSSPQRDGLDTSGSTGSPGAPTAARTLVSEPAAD

In the case of `CC1(O)CN(Cc2ccc(N3CC(c4c(Cl)cccc4Cl)C3)c(F)c2)C1` [Compound 67, 1-(4-(3-(2,6-dichlorophenyl)azetidin-1-yl)-3-fluorobenzyl)-3-methylazetidin-3-ol], the EC50 fell in the range of 10 to 100 nM.
